The target of test [1] is sAniA (Neisseria gonorrhoeae, UniProt Q02219). Description: biochemical. The method, then: Biolayer Interferometry. […] Streptavidin (SA) biosensors (ForteBio) were loaded with C7-3Bio peptides for 10 min. Unloaded tips were used as a control. The sAniA samples were prepared in Kinetic Buffer in concentrations of 50, 100, 500, and 1000 nM. The baseline was established for 240 s and the association and dissociation steps were performed for 500 s. Experiments were performed in three biological replicates with the curve fitting using 2:1 (Heterogeneous Ligand) model and KD value calculations were completed using Octet Data Analysis (version 9).

The target in test [2] is T1, sAniA (recombinant AniA nitrite reductase) (Neisseria gonorrhoeae, UniProt Q02219).
T1 construct: wild type protein which lacks the N-terminal palmitoylation signal, sAniA; 6xHis (C); made in house; host or cells: Escherichia coli BL21(DE3)
Description: Inhibition of nitrite reductase activity of purified sAniA (fluorometric DAN nitrite assay). The test is classed as biochemical. Here is the method: (§1) Measurements of Nitrite Reductase Activity with Purified AniA Variants. Enzymatic activity assessments with sAniA and AniA D137A H280A were performed based upon previous work (Boulanger and Murphy 2002, J Mol Biol 315:1111-27; Kakutani et al. 1981, J Biochem 89:463-72) but using a highly sensitive fluorometric assay for nitrite measurements that relies on the reaction of nitrite with 2,3-diaminonapthalene (DAN) to form the fluorescent product, 1-(H)-naphtothriazole (Misko et al. 1993, Anal Biochem 214:11-6). All reactions were conducted under anoxic or microoxic conditions. Fluorescence was measured at excitation of 360/40 nm and emission of 460/40 nm at a gain of 50 using a Synergy HT Plate Reader (BioTek). The sAniA and AniA D137AH280A activities are expressed as the mean reaction rate (nmoles of nitrite reduced/min/[…]) from at least ten independent experiments over the course of a nitrite utilization assay (Shewell et al. 2013, Biochem Biophys Res Commun 431:215-20).
(§2) Determination of Peptides Inhibitory Concentrations Required to Reduce the Signal by 50% (IC50s). […] Nitrite measurements with DAN were performed as described above after pre-incubation of samples for 1 h at room temperature. Control reactions consisted of sAniA alone and AniA D137A H280A treated in the same manner as the experimental samples. Reactions were performed in at least twelve independent experiments. Percent inhibition was calculated using the formula % I=100*(1−(x−y)/(z−y)) where “x”, “y” and “z” are the concentrations of nitrite in samples containing sAniA incubated with synthetic peptides, AniA D137A H280A and sAniA, respectively. The data were analyzed with a nonlinear log(inhibitor) vs. response—variable slope (four parameters) curve-fitting technique (GraphPad) to obtain […]. All experiments were performed in at least ten independent trials.

Test [3] concerns AniA nitrite reductase activity of intact N. gonorrhoeae FA1090 ΔaniA/PlacaniA cells. The test is classed as cell-based, Neisseria gonorrhoeae. The following applies: for Inhibition of nitrite reductase activity of intact gonococci: FA1090 ΔaniA/PlacaniA. The method, then: Whole Cell Nitrite Utilization Studies. The FA1090 ΔaniA/Plac::aniA and ΔaniA/Plac::D137AH280A were grown to OD600˜1.0, gently spun down, decanted and re-suspended in GCBL. […] Subsequently, 0.1 mM sodium nitrite was added and the samples were transferred into an anaerobic chamber. After 1 h, nitrite consumption was measured using Griess Reagent (Biotium) as previously described for N. gonorrhoeae nitrite reductase whole cell assay (Shewell et al. 2013, Biochem Biophys Res Commun 431:215-20). Absorbance values were measured at OD545 using a Synergy HT plate reader and nitrite concentration was assessed against a nitrite standard prepared in GCBL. Percent inhibition was calculated using the formula % 1=100*(1−(x−y)/(z−y)) where “x”, “y” and “z” are the concentrations of nitrite in samples containing FA1090 ΔaniA/PlacaniA incubated with synthetic peptides, ΔaniA/PlacaniA D137A H280A and ΔaniA/PlacaniA, respectively. Experiments were performed on at least three separate occasions and mean with SEM are reported.

The target of test [4] is T2, sAniA (recombinant AniA nitrite reductase) (Neisseria gonorrhoeae, UniProt Q02219).
T2 construct: wild type protein which lacks the N-terminal palmitoylation signal, sAniA; 6xHis (C); made in house; host or cells: Escherichia coli BL21(DE3)
T2 sequence (Q02219 whole entry, looked up): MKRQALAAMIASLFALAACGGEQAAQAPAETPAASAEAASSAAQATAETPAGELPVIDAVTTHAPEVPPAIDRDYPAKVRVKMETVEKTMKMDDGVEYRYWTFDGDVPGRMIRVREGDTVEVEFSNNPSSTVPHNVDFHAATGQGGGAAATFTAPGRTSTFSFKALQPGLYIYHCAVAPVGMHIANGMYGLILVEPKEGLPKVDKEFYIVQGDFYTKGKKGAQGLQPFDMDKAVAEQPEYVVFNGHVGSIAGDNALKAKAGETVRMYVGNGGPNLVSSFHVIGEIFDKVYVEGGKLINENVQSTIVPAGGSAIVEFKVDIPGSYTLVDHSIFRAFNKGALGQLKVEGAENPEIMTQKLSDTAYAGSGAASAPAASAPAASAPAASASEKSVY
Kind of test: Inhibition of nitrite reductase activity of purified sAniA (fluorometric DAN nitrite assay). The test is classed as biochemical. The following applies: peptide 0 to 100 μM, DAN nitrite consumption assay. The method, then:
as §1, §2

In test [5] the target is T3, sAniA (Neisseria gonorrhoeae, UniProt Q02219).
T3 construct: wild type protein which lacks the N-terminal palmitoylation signal, sAniA; 6xHis (C); made in house; host or cells: Escherichia coli BL21(DE3)
T3 sequence (Q02219 whole entry, looked up): T2 sequence (Q02219 whole entry, looked up)
Description: Phage ELISA of phage-displayed peptides on sAniA-coated wells. It counts as binding. The following applies: 10^10 PFU per well, absorbance at 450 nm. The method, then: Phage Enzyme-linked Immunosorbent Assay (Phage ELISA). Individual wells in 96-well transparent plates (Greiner-Bio) were coated with 100 μL of 100 μg/mL of sAniA suspended in 0.1 M NaHCO3pH 8.6 and incubated overnight at 4° C. in an airtight humidified box. After incubation, excess target solution was shaken out and wells were filled with 300 μL of blocking buffer (0.1 M NaHCO3pH 8.6, 5 mg/mL BSA). Following 2 h incubation at 4° C., blocking buffer was removed and wells were washed six times with 200 μL of TBST (50 mM Tris-HCl pH 8.6, 150 mM NaCl, 0.5% Tween). Isolated individual phage amplifications (10^10 PFU) in 100 μl of TBST were incubated at room temperature for 1 h with rocking. All wells were then cleared by shaking and washed six times with 200 μL of TBST. A solution containing Anti-M13 HRP linked-Monoclonal Antibodies (NEB) (1:5,000 dilution in blocking buffer) was distributed at 200 μL per well and incubated with rocking at room temperature for 1 h. Wells were washed six times with TBST and incubated with Turbo TMB-ELISA for 30 min with rocking at room temperature. To stop the reaction, finally 100 μL of 1.78 M H2SO4 was added to each well. […] Data from seven independent experiments are shown with mean and SEM

Where two headings read alike, the source gives them in different places. Where a SMILES comes first, the peptide text is derived from it. The star is where a group is joined. Biotin = O=C1N[C@H]2[C@H](CS[C@H]2CCCCC(=O)*)N1; Ahx = NCCCCCC(=O)O Some results are limits rather than exact numbers.

As to `CC(C)C[C@H](NC(=O)[C@H](CC(N)=O)NC(=O)[C@H](CC(C)C)NC(=O)[C@H](CCCNC(=N)N)NC(=O)[C@H](CS)NC(=O)[C@H](Cc1ccc(O)cc1)NC(=O)[C@H](CC(N)=O)NC(=O)[C@H](CS)NC(=O)[C@H](C)NC(=O)CCCCCNC(=O)CCCC[C@@H]1SC[C@@H]2NC(=O)N[C@@H]21)C(=O)N[C@@H](Cc1c[nH]c2ccccc12)C(=O)NCC(=O)NCC(=O)NCC(=O)N[C@@H](CO)C(N)=O` [C7-3Bio] ({Biotin-Ahx}-ACNYCRLNLWGGGS-NH2), binding at sAniA [1] was characterised by a dissociation constant (Kd) of 775 ± 88.5 nM.
For `CC(C)C[C@H](NC(=O)[C@H](CC(N)=O)NC(=O)[C@H](CC(C)C)NC(=O)[C@H](CCCNC(=N)N)NC(=O)[C@H](CS)NC(=O)[C@H](Cc1ccccc1)NC(=O)[C@H](CC(N)=O)NC(=O)[C@H](CS)NC(=O)[C@H](C)N)C(=O)N[C@@H](Cc1c[nH]c2ccccc12)C(=O)NCC(=O)NCC(=O)NCC(=O)N[C@@H](CO)C(N)=O` [C7-3P] (H-ACNFCRLNLWGGGS-NH2), the IC50 in test [2] was greater than 105000 nM.
`CC(C)C[C@H](NC(=O)[C@H](CC(N)=O)NC(=O)[C@H](CC(C)C)NC(=O)[C@H](CCCNC(=N)N)NC(=O)[C@H](CS)NC(=O)[C@H](Cc1ccc(O)cc1)NC(=O)[C@H](CC(N)=O)NC(=O)[C@H](CS)NC(=O)[C@H](C)N)C(=O)N[C@@H](Cc1c[nH]c2ccccc12)C(=O)NCC(=O)NCC(=O)NCC(=O)N[C@@H](CO)C(N)=O` [C7-3] (H-ACNYCRLNLWGGGS-NH2): the 50% inhibitory concentration (IC50) in test [2] stood at 10100 nM. Moreover, the “Inhibition of nitrite reductase activity of intact gonococci” value in test [3] (0.6 mM peptide) was determined as 50%. On sAniA [1], this molecule returned a Kd of 775 ± 88.5 nM.
In the case of `CC(C)C[C@H](NC(=O)[C@H](CC(N)=O)NC(=O)[C@H](CC(C)C)NC(=O)[C@H](CCCNC(=N)N)NC(=O)[C@H](CS)NC(=O)[C@H](Cc1ccc(O)cc1)NC(=O)[C@H](CO)NC(=O)[C@H](CS)NC(=O)[C@H](C)N)C(=O)N[C@@H](Cc1c[nH]c2ccccc12)C(=O)NCC(=O)NCC(=O)NCC(=O)N[C@@H](CO)C(N)=O` [C7-3mod2] (H-ACSYCRLNLWGGGS-NH2), the “Inhibition of nitrite reductase activity of intact gonococci” value in test [3] (0.3 mM peptide) came out at 50%; in test [3] (0.6 mM peptide) it was 90%.
Regarding H-ACNYSRLNLWGGGS-NH2 [C7-3mod1], the “Inhibition of AniA in intact gonococci (in words)” value in test [3] (0.15-0.6 mM tested, concentration not given) is listed as “inhibited AniA moderately”.
Turning to “H-KHYYGGDTTTLWGGGS-NH2 [12-5, synthetic version of the dodecameric phage-display hit 12-5]”, the “Influence on AniA enzymatic activity (in words)” value in test [4] is “did not influence AniA enzymatic activity”. Further, the “Effect on AniA activity of intact gonococci (in words)” value in test [3] (highest tested concentration, 0.6 mM) is “no effect”. Moreover, the “Relative binding of phage-displayed peptide to sAniA (in words)” value with sAniA [5] was “best binding”.

These data come from patent publication US10875890B2, “Peptide inhibitors targeting the Neisseria gonorrhoeae pivotal anaerobic respiration factor AniA” (priority 2017, dated 2020).
